# Experimental data reported in patent US20180194762A1 (Pharmacyclics LLC, priority 2017, published 2018).
# Read-outs that look alike come from different tables or passages of the source.
# How the values were obtained:
# Assay type in all cases: biochemical
# [1] = molecular target: T1, panel of kinases (Homo sapiens, UniProt P51813); assay: Inhibition of a panel of kinases (in vitro HotSpot kinase assay, 33P-ATP, 1 μM ATP), other kinases; settings: BMX wild-type, read-out: BMX-WT IC50
# T1 sequence (P51813 1-675): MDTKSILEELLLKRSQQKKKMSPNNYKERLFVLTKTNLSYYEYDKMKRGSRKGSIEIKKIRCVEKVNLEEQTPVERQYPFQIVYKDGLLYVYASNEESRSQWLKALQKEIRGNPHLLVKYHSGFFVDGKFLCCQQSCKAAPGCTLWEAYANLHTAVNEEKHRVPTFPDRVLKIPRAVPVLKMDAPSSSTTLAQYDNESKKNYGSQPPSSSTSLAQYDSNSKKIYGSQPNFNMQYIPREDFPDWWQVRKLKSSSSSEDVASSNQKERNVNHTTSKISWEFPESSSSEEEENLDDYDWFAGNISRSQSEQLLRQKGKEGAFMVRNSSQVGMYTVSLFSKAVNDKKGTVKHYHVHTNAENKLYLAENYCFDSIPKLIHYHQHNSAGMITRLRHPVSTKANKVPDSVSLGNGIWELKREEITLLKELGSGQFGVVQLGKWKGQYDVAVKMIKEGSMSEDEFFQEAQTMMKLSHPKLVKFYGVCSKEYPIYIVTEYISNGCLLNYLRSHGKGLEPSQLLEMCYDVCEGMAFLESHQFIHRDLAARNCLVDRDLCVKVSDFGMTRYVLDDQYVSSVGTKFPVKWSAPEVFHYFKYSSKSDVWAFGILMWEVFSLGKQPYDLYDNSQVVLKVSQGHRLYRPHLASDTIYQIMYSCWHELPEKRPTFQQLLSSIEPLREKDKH
# In short: (§1)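 Degree of kinase inhibition is determined in vitro using isolated enzymes, a matched substrate and radiolabelled ATP (1 μM).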
# [2] = molecular target: T2, TEC (Homo sapiens, UniProt P42680); assay: Inhibition of a panel of kinases (in vitro HotSpot kinase assay, 33P-ATP, 1 μM ATP); settings: for IC50: HotSpot kinase assay, 1 μM ATP; for TEC/Btk: ratio of TEC IC50 to Btk IC50 (selectivity)
# T2 sequence (P42680 1-631): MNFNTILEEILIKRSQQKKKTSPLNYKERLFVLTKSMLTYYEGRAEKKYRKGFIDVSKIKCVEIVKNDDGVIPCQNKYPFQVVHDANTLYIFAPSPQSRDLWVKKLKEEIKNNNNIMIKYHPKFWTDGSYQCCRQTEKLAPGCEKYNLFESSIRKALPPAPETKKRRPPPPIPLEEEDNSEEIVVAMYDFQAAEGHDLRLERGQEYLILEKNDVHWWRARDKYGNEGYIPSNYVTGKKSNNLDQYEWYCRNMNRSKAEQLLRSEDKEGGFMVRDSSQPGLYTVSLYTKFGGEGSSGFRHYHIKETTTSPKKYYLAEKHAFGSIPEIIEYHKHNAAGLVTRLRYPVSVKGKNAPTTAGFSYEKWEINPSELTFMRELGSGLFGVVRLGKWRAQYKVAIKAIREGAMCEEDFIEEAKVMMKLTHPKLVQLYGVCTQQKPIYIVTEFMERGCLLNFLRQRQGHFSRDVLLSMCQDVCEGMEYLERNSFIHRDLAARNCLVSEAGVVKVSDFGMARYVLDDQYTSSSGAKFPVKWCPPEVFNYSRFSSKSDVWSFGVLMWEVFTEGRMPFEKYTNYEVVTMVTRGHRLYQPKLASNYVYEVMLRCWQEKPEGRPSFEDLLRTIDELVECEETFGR
# In short: as §1
# [3] = molecular target: T3, Btk (Homo sapiens, UniProt Q06187); assay: Btk in vitro inhibitory activity (one of Method A TR-FRET, Method B electrophoretic mobility shift, Method C radiometric filter binding)
# T3 construct: purified from insect cells as a full-length construct containing a N-terminal 6X-His tag; His6 (N); made in house; host or cells: insect cells (Method C)
# T3 sequence (Q06187 whole entry): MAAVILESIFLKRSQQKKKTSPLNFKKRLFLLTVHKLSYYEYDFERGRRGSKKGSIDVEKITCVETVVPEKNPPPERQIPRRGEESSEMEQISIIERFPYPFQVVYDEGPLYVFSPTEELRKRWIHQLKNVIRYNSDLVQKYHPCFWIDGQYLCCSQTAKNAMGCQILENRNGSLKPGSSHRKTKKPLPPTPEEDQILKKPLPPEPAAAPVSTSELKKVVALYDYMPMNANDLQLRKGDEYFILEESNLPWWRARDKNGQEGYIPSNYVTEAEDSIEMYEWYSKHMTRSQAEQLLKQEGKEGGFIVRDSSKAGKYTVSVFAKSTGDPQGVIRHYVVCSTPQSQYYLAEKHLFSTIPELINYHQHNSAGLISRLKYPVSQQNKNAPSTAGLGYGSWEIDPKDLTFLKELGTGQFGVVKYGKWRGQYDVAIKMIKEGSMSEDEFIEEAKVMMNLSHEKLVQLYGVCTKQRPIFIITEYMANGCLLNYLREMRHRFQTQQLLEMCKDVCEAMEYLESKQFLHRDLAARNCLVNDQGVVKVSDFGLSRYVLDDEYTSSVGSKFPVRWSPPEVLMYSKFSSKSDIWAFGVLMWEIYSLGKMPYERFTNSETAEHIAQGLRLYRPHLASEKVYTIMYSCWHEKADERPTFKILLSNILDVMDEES
# In short: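 Method A: TR-FRET with 0.5 nM Btk at [ATP]=Km, EDTA-quenched, 665/615 nm ratio; Ki(app) converted to IC50. Method B: 1 nM full-length His6 human BTK, 1 μM FAM peptide, pH 7.5, mobility-shift product/sum ratio, 12-point 4-parameter fit. Method C: radiometric filter binding, 8 nM His-tagged BTK, 0.2 mg/mL poly-Glu-Tyr.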
# [4] = wild-type Btk, read-out: Btk-WT IC50
# [5] = method is one of A, B or C, not stated which, read-out: IC50 values against Btk
IC50 [1],IC50 [2],"IC50 [3, 4]",TEC/Btk [2],"IC50 [3, 5]",Compound
98.3 nM,807 nM,22.1 nM,–,–,"C=CC(=O)N1CC[C@@H](Nc2n[nH]c3nccc(-c4ccc(CNC(=O)N5CCCCC5)c(F)c4)c23)C1 [Example 375, N-{[2-fluoro-4-(3-{[(3R)-1-(prop-2-enoyl)pyrrolidin-3-yl]amino}-1H-pyrazolo[3,4-b]pyridin-4-yl)phenyl]methyl}piperidine-1-carboxamide]"
387 nM,5030 nM,5.5 nM,915,–,"C[C@H]1CC[C@@H](Nc2n[nH]c3nccc(-c4ccc(CN5CCn6c(cc7c6CCCC7)C5=O)c(F)c4)c23)CN1C(=O)N(C)C [Example 240, (2S,5R)-5-[(4-{3-fluoro-4-[(1-oxo-3,4,6,7,8,9-hexahydropyrazino[1,2-a]indol-2(1H)-yl)methyl]phenyl}-1H-pyrazolo[3,4-b]pyridin-3-yl)amino]-N,N,2-trimethylpiperidine-1-carboxamide]"
6970 nM,4510 nM,10.4 nM,434,–,"CC(C)(C)c1nc(C(=O)NCc2ccc(-c3ccnc4[nH]nc(N[C@@H]5CCCNC5)c34)cc2F)no1 [Example 69, 5-tert-butyl-N-{[2-fluoro-4-(3-{[(3R)-piperidin-3-yl]amino}-1H-pyrazolo[3,4-b]pyridin-4-yl)phenyl]methyl}-1,2,4-oxadiazole-3-carboxamide]"
5870 nM,9550 nM,1.63 nM,5859,–,"C[C@@H](NC(=O)c1nc(C(C)(C)C)no1)c1ccc(-c2ccnc3[nH]nc(C4CCN(C(=O)N(C)C)CC4)c23)cc1 [Example 244, 4-[4-(4-{(1R)-1-[(3-tert-butyl-1,2,4-oxadiazole-5-carbonyl)amino]ethyl}phenyl)-1H-pyrazolo[3,4-b]pyridin-3-yl]-N,N-dimethylpiperidine-1-carboxamide]"
182 nM,130 nM,0.62 nM,210,–,"C=CC(=O)N1CC[C@@H](Nc2n[nH]c3nccc(-c4ccc(CNC(=O)c5ccc(C(C)(C)C)cc5)c(F)c4)c23)C1 [Compound 6, 4-tert-butyl-N-{[2-fluoro-4-(3-{[(3R)-1-(prop-2-enoyl)pyrrolidin-3-yl]amino}-1H-pyrazolo[3,4-b]pyridin-4-yl)phenyl]methyl}benzamide]"
> 10000 nM,> 10000 nM,159 nM,>100,–,"CC(C)(C)c1nnc(C(=O)NCc2ccc(-c3ccnc4[nH]nc(N[C@@H]5CCNC5)c34)cc2F)o1 [Example 77, 5-tert-butyl-N-{[2-fluoro-4-(3-{[(3R)-pyrrolidin-3-yl]amino}-1H-pyrazolo[3,4-b]pyridin-4-yl)phenyl]methyl}-1,3,4-oxadiazole-2-carboxamide]"
> 10000 nM,> 10000 nM,> 10000 nM,–,–,"CC(C)(C)c1n[nH]c(C(=O)NCc2ccc(-c3ccnc4[nH]nc(N[C@@H]5CCNC5)c34)cc2F)n1 [Example 78, 3-tert-butyl-N-{[2-fluoro-4-(3-{[(3R)-pyrrolidin-3-yl]amino}-1H-pyrazolo[3,4-b]pyridin-4-yl)phenyl]methyl}-1H-1,2,4-triazole-5-carboxamide]"
6 nM,9 nM,0.104 nM,83,< 10 nM,"C=CC(=O)N1CCC[C@@H](Nc2n[nH]c3nccc(-c4ccc(CNC(=O)c5cc(C(C)C)on5)c(F)c4)c23)[C@H]1C [Example 173, N-{[2-fluoro-4-(3-{[(2R,3R)-2-methyl-1-(prop-2-enoyl)piperidin-3-yl]amino}-1H-pyrazolo[3,4-b]pyridin-4-yl)phenyl]methyl}-5-(propan-2-yl)-1,2-oxazole-3-carboxamide]"
5450 nM,4430 nM,38.4 nM,115,–,"C[C@@H]1[C@H](Nc2n[nH]c3nccc(-c4ccc(CNC(=O)c5noc(C(C)(C)C)n5)c(F)c4)c23)CCCN1C(=O)C1CC1 [Example 126, 5-tert-butyl-N-{[4-(3-{[(2R,3R)-1-cyclopropanecarbonyl-2-methylpiperidin-3-yl]amino}-1H-pyrazolo[3,4-b]pyridin-4-yl)-2-fluorophenyl]methyl}-1,2,4-oxadiazole-3-carboxamide]"
92 nM,107 nM,0.18 nM,594,< 10 nM,"CC#CC(=O)N1CC[C@@H](Nc2n[nH]c3nccc(-c4ccc(CNC(=O)c5cc(C(C)(C)C)on5)c(F)c4)c23)C1 [Example 111, N-{[4-(3-{[(3R)-1-(but-2-ynoyl)pyrrolidin-3-yl]amino}-1H-pyrazolo[3,4-b]pyridin-4-yl)-2-fluorophenyl]methyl}-5-tert-butyl-1,2-oxazole-3-carboxamide]"
1560 nM,2240 nM,7.43 nM,301,–,"CC(=O)N[C@@H]1CCN(c2n[nH]c3nccc(-c4ccc(CNC(=O)c5cc(C(C)C)no5)c(F)c4)c23)C1 [Example 185, N-[(4-{3-[(3R)-3-acetamidopyrrolidin-1-yl]-1H-pyrazolo[3,4-b]pyridin-4-yl}-2-fluorophenyl)methyl]-3-(propan-2-yl)-1,2-oxazole-5-carboxamide]"
713 nM,2380 nM,287 nM,8,–,"C=CC(=O)N1CC[C@@H](Nc2n[nH]c3nccc(-c4cc(F)cc(CNC(=O)c5noc(C(C)(C)C)n5)c4)c23)C1 [Example 88, 5-tert-butyl-N-{[3-fluoro-5-(3-{[(3R)-1-(prop-2-enoyl)pyrrolidin-3-yl]amino}-1H-pyrazolo[3,4-b]pyridin-4-yl)phenyl]methyl}-1,2,4-oxadiazole-3-carboxamide]"
111 nM,259 nM,0.785 nM,330,–,"C=CC(=O)N1CCC[C@@H](Nc2n[nH]c3nccc(-c4ccc(C5(NC(=O)c6noc(C(C)(C)C)n6)CC5)c(F)c4)c23)C1 [Example 133, 5-tert-butyl-N-{1-[2-fluoro-4-(3-{[(3R)-1-(prop-2-enoyl)piperidin-3-yl]amino}-1H-pyrazolo[3,4-b]pyridin-4-yl)phenyl]cyclopropyl}-1,2,4-oxadiazole-3-carboxamide]"
4690 nM,1650 nM,8.97 nM,–,–,"CN(C)C(=O)N1CC[C@@H](Nc2n[nH]c3nccc(-c4ccc(CNC(=O)c5coc(C(C)(C)C)n5)c(F)c4)c23)C1 [Example 296, 2-tert-butyl-N-{[4-(3-{[(3R)-1-(dimethylcarbamoyl)pyrroli-din-3-yl]amino}-1H-pyrazolo[3,4-b]pyridin-4-yl)-2-fluorophenyl]methyl}-1,3-oxazole-4-carboxamide]"
2140 nM,3340 nM,861 nM,4,–,"CC(C)(C)c1cccc(C(=O)NCc2ccc(-c3ccnc4[nH]nc(N[C@@H]5CCNC5)c34)cc2F)c1 [Example 62, 3-tert-butyl-N-{[2-fluoro-4-(3-{[(3R)-pyrrolidin-3-yl]amino}-1H-pyrazolo[3,4-b]pyridin-4-yl)phenyl]methyl}benzamide]"
